# Source: ChEMBL document CHEMBL3745655, “Novel carbocyclic nucleoside analogs suppress glomerular mesangial cells proliferation and matrix protein accumulation through ROS-dependent mechanism in the diabetic milieu. II. Acylhydrazone-functionalized pyrimidines” (Bioorg Med Chem Lett, 2016)
# The source made the active and inactive calls. No cut-off for these calls is given here.
# Tests used:
# Assay type in all cases: functional
# [1] = Antidiabetic activity in 24 hrs serum-deprived rat glomerular mesangial cells assessed as reduction of high glucose-induced fibronectin and beta-actin expression ratio at 0.25 uM after 48 hrs by Western blot analysis relative to control
# [2] = Antidiabetic activity in 24 hrs serum-deprived rat glomerular mesangial cells assessed as reduction of high glucose-induced fibronectin and beta-actin expression ratio at 5 uM after 48 hrs by Western blot analysis relative to control
# [3] = Antidiabetic activity in 24 hrs serum-deprived rat glomerular mesangial cells assessed as reduction of high glucose-induced fibronectin and beta-actin expression ratio at 1 uM after 48 hrs by Western blot analysis relative to control
# [4] = Antidiabetic activity in 24 hrs serum-deprived rat glomerular mesangial cells assessed as reduction of high glucose-induced fibronectin and beta-actin expression ratio at 0.5 uM after 48 hrs by Western blot analysis relative to control
# [5] = Antidiabetic activity in 24 hrs serum-deprived rat glomerular mesangial cells assessed as reduction of high glucose-induced ROS production at 5 uM after 48 hrs by DHE staining
# Rattus norvegicus = species on record: Rattus norvegicus; assay: Protection against high glucose-induced increase of cell proliferation in rat glomerular mesangial cells after 48 hrs by MTT assay
# [6] = Antidiabetic activity in 24 hrs serum-deprived rat glomerular mesangial cells assessed as reduction of high glucose-induced ROS production at 1 uM after 48 hrs by DHE staining
SMILES,Ratio [1],Ratio [2],Ratio [3],Ratio [4],Activity [5],Activity (Rattus norvegicus),Activity [6]
CCOC(=O)[C@H]1CC(=O)C[C@H]1C(=O)OCC,81.8,84.2,88.9,79.8,,,
Cc1cn(CCC(=O)NN)c(=O)nc1O,,102,94,89.2,,,
Cc1cn(CCC(=O)NN=C2CCCC2)c(=O)nc1O,,127,126,118,,,
NNC(=O)CCn1ccc(N)nc1=O,,80.8,81.6,76.5,,,
NNC(=O)CCn1ccc(O)nc1=O,,85.4,80.5,101,Active,Active,
Nc1ccn(CCC(=O)NN=C2CCCC2)c(=O)n1,,275,213,218,,,
O=C(CCn1ccc(O)nc1=O)NN=C1CCCC1,,64.3,84.8,100,,Active,Active
O=C1CCCC1,82.8,129,114,101,,,
O=C1C[C@H](C(=O)O)[C@H](C(=O)O)C1,129,121,145,149,,,
CCOC(=O)C1CCC/C1=N\NC(=O)CCn1cc(C)c(O)nc1=O (racemic),,91.6,96.5,88.8,,inactive,
CCOC(=O)C1CCC/C1=N\NC(=O)CCn1ccc(N)nc1=O (racemic),,102,119,111,,,
CCOC(=O)C1CCC/C1=N\NC(=O)CCn1ccc(O)nc1=O (racemic),,106,126,127,,,
CCOC(=O)C1CCCC1=O (racemic),109,137,88.3,110,,,
CCOC(=O)[C@@H]1CC(=NNC(=O)CCn2cc(C)c(O)nc2=O)C[C@H]1C(=O)OCC (racemic),,87.6,90.8,94.2,,,
CCOC(=O)[C@@H]1CC(=NNC(=O)CCn2ccc(N)nc2=O)C[C@H]1C(=O)OCC (racemic),,80.6,96.1,98.2,,inactive,
CCOC(=O)[C@@H]1CC(=NNC(=O)CCn2ccc(O)nc2=O)C[C@H]1C(=O)OCC (racemic),,94,132,145,,Active,Active
CCOC(=O)[C@@H]1CC(=O)C[C@H]1C(=O)OCC (racemic),82.4,79.7,86.3,90.2,,,
CCOC(=O)[C@H]1C/C(=N\NC(=O)CCn2cc(C)c(O)nc2=O)C[C@H]1C(=O)OCC (racemic),,81.1,97.9,91.9,,,
CCOC(=O)[C@H]1C/C(=N\NC(=O)CCn2ccc(N)nc2=O)C[C@H]1C(=O)OCC (racemic),,125,91,95.1,,,
CCOC(=O)[C@H]1C/C(=N\NC(=O)CCn2ccc(O)nc2=O)C[C@H]1C(=O)OCC (racemic),,76.5,93.7,97.5,,inactive,
Cc1cn(CCC(=O)N/N=C2\C[C@H](C(=O)O)[C@H](C(=O)O)C2)c(=O)nc1O (racemic),,70.7,72,80.1,,Active,Active
Cc1cn(CCC(=O)NN=C2C[C@@H](C(=O)O)[C@H](C(=O)O)C2)c(=O)nc1O (racemic),,63.1,64.6,78.4,,Active,Active
Nc1ccn(CCC(=O)N/N=C2\C[C@H](C(=O)O)[C@H](C(=O)O)C2)c(=O)n1 (racemic),136,113,142,143,,,
Nc1ccn(CCC(=O)NN=C2C[C@@H](C(=O)O)[C@H](C(=O)O)C2)c(=O)n1 (racemic),123,107,128,126,,,
O=C(CCn1ccc(O)nc1=O)N/N=C1\C[C@H](C(=O)O)[C@H](C(=O)O)C1 (racemic),75.1,117,96.7,80,,,
O=C(CCn1ccc(O)nc1=O)NN=C1C[C@@H](C(=O)O)[C@H](C(=O)O)C1 (racemic),132,96.9,115,116,,,
O=C1C[C@@H](C(=O)O)[C@H](C(=O)O)C1 (racemic),135,124,149,143,,,
